Where two headings read alike, the source gives them in different places.
Columns and labels:
Type in all cases: in vivo
Septoria nodorum (Wheat) = test: Foliar fungal disease test on plants: Septoria nodorum (Wheat); settings: one or two days before inoculation
Procedure: (§1) The compounds were tested against a variety of foliar fungal diseases of plants. The technique employed was as follows.
(§2) The plants were grown in John Innes Potting Compost (No 1 or 2) in 4 cm diameter minipots. The test compounds were formulated either by bead milling with aqueous DISPERSOL T or as a solution in acetone or acetone/ethanol which was diluted to the required concentration immediately before use. […] The sprays were applied to maximum retention and the root drenches to a final concentration equivalent to approximately 40 ppm a.i. in dry soil. TWEEN 20 was added to give a final concentration of 0.05% when the sprays were applied to cereals.
(§3) For most of the tests the compounds were applied to the soil (roots) or to the foliage (by spraying) one or two days before the plant was inoculated with the disease. An exception was the test on Erysiphe graminis in which the plants were inoculated 24 hours before treatment. Foliar pathogens were applied by spray as zoosporangial suspensions onto the leaves of test plants. After inoculation, the plants were put into an appropriate environment to allow infection to proceed and then incubated until the disease was ready for assessment. The period between inoculation and assessment varied from four to fourteen days according to the disease and environment.
(§4) The disease level present (i.e. leaf area covered by actively sporulating disease) on each of the treated plants was recorded using the following assessment scale:
(§5) Each assessment was then expressed as a percentage of the level of disease present on the untreated control plants. This calculated value is referred to as a POCO (Percentage of Control) value. An example of a typical calculation is as follows:
(§6) Disease level on untreated control=90
(§7) Disese level on treated plant=30 [formula]
(§8) This calculated POCO value is then rounded to the nearest of the values in the 9-point assessment scale shown above. In this particular example, the POCO value would be rounded to 30. If the calculated POCO falls exactly mid-way between two of the points, it is rounded to the lower of the two values.

[1] = test system: Phytophthora infestans (Tomatoes); settings: 100 ppm a.i. foliar spray or root drench (approx. 40 ppm in dry soil), one or two days before inoculation
[2] = test system: Thanatephorus cucumeries (Rice); test: Foliar fungal disease test on plants: Thanatephorus cucumeries (Rice); settings: one or two days before inoculation
Procedure: as §1, §2, §3, §4, §5, §6, §7, §8

[3] = test system: Venturia inaequalis (Apples); test: Foliar fungal disease test on plants: Venturia inaequalis (Apples); settings: 100 ppm a.i. foliar spray or root drench (approx. 40 ppm in dry soil), one or two days before inoculation
Procedure: as §1, §2, §3, §4, §5, §6, §7, §8

[4] = test system: Plasmopara viticola (Vines); test: Foliar fungal disease test on plants: Plasmopara viticola (Vines); settings: one or two days before inoculation
Procedure: as §1, §2, §3, §4, §5, §6, §7, §8

[5] = test system: Pyricularia oryzae (Rice); settings: one or two days before inoculation
[6] = test system: Erysiphe graminis tritici (Wheat); test: Foliar fungal disease test on plants: Erysiphe graminis tritici (Wheat); settings: 100 ppm a.i. foliar spray or root drench (approx. 40 ppm in dry soil); plants inoculated 24 hours before treatment
Procedure: as §1, §2, §3, §4, §5, §6, §7, §8

[7] = test system: Puccinia recondita (Wheat); test: Foliar fungal disease test on plants: Puccinia recondita (Wheat); settings: one or two days before inoculation
Procedure: as §1
The plants were grown in John Innes Potting Compost (No 1 or 2) in 4 cm diameter minipots. The test compounds were formulated either by bead milling with aqueous DISPERSOL T or as a solution in acetone or acetone/ethanol which was diluted to the required concentration immediately before use. The formulations (100 ppm active ingredient) were sprayed on to the foliage or applied to the roots of the plants in the soil. The sprays were applied to maximum retention and the root drenches to a final concentration equivalent to approximately 40 ppm a.i. in dry soil. TWEEN 20 was added to give a final concentration of 0.05% when the sprays were applied to cereals.
as §3, with “For most of the tests the compounds were applied to the soil (roots) or to the foliage (by spraying) one or two days before the plant was inoculated with the disease.” left out
as §4, §5, §6, §7, §8

[8] = 100 ppm a.i. foliar spray or root drench (approx. 40 ppm in dry soil)

Structure (SMILES)	POCO (Percentage of Control) disease level, Septoria nodorum (Wheat) (Septoria nodorum (Wheat); [8])	POCO (Percentage of Control) disease level, Phytophthora infestans (Tomatoes) [1]	POCO (Percentage of Control) disease level, Thanatephorus cucumeries (Rice) [2, 8]	POCO (Percentage of Control) disease level, Venturia inaequalis (Apples) [3]	POCO (Percentage of Control) disease level, Plasmopara viticola (Vines) [4, 8]	POCO (Percentage of Control) disease level, Pyricularia oryzae (Rice) [5, 8]	POCO (Percentage of Control) disease level, Erysiphe graminis tritici (Wheat) [6]	POCO (Percentage of Control) disease level, Puccinia recondita (Wheat) [7, 8]	POCO (Percentage of Control) disease level, Puccinia recondita (Wheat) ([7]; 10 ppm foliar spray only)	POCO (Percentage of Control) disease level, Septoria nodorum (Wheat) (Septoria nodorum (Wheat); 10 ppm foliar spray only)	POCO (Percentage of Control) disease level, Thanatephorus cucumeries (Rice) ([2]; 10 ppm foliar spray only)	POCO (Percentage of Control) disease level, Plasmopara viticola (Vines) ([4]; 10 ppm foliar spray only)	POCO (Percentage of Control) disease level, Pyricularia oryzae (Rice) ([5]; 10 ppm foliar spray only)
COC=C(C(=O)OC)c1ccccc1COC(=O)N(C)c1ccccc1F [3 (2)]	0 (0 = 0% disease present)	0 (0 = 0% disease present)	0 (0 = 0% disease present)	0 (0 = 0% disease present)	0 (0 = 0% disease present)	0 (0 = 0% disease present)	0 (0 = 0% disease present)						
CCN(C(=O)OCc1ccccc1C(=COC)C(=O)OC)c1ccccc1F [3 (3)]	0 (0 = 0% disease present)	0 (0 = 0% disease present)	0 (0 = 0% disease present)	0 (0 = 0% disease present)	0 (0 = 0% disease present)	0 (0 = 0% disease present)	0 (0 = 0% disease present)						
COC=C(C(=O)OC)c1ccccc1OC(=O)NCc1ccccc1 [4 (17)]	60 (60 = 30.1-60% disease present)		0 (0 = 0% disease present)		0 (0 = 0% disease present)	5 (5 = 3.1-5% disease present)	10 (10 = 5.1-10% disease present)	1 (1 = 0.1-1% disease present)					
CCN(C(=O)OCc1ccccc1C(=COC)C(=O)OC)c1ccccc1 [5 (3)]	0 (0 = 0% disease present)	5 (5 = 3.1-5% disease present)	5 (5 = 3.1-5% disease present)	0 (0 = 0% disease present)	0 (0 = 0% disease present)	0 (0 = 0% disease present)	0 (0 = 0% disease present)						
COC=C(C(=O)OC)c1ccccc1OC(=O)Nc1ccccc1 [5 (17)]	60 (60 = 30.1-60% disease present)	60 (60 = 30.1-60% disease present)	90 (90 and 94 = 60.1-100% disease present)	1 (1 = 0.1-1% disease present)	0 (0 = 0% disease present)	5 (5 = 3.1-5% disease present)	60 (60 = 30.1-60% disease present)						
COC=C(C(=O)OC)c1ccccc1COC(=O)N(C)c1cccc([N+](=O)[O-])c1 [6 (2)]	0 (0 = 0% disease present)	10 (10 = 5.1-10% disease present)	30 (30 = 20.1-30% disease present)	0 (0 = 0% disease present)	0 (0 = 0% disease present)	0 (0 = 0% disease present)	0 (0 = 0% disease present)						
CCN(C(=O)OCc1ccccc1C(=COC)C(=O)OC)c1cccc([N+](=O)[O-])c1 [6 (3)]	0 (0 = 0% disease present)	10 (10 = 5.1-10% disease present)	90 (90 and 94 = 60.1-100% disease present)	0 (0 = 0% disease present)	0 (0 = 0% disease present)	0 (0 = 0% disease present)	0 (0 = 0% disease present)						
COC=C(C(=O)OC)c1ccccc1COC(=S)Nc1ccc(Cl)cc1 [11 (6)]									20 (20 and 24 = 10.1-20% disease present)	60 (60 = 30.1-60% disease present)	90 (90 and 94 = 60.1-100% disease present)	0 (0 = 0% disease present)	20 (20 and 24 = 10.1-20% disease present)
COC=C(C(=O)OC)c1ccccc1COC(=O)Nc1ccc(F)cc1F [24 (1)]	60 (60 = 30.1-60% disease present)	20 (20 and 24 = 10.1-20% disease present)	60 (60 = 30.1-60% disease present)	0 (0 = 0% disease present)	0 (0 = 0% disease present)	90 (90 and 94 = 60.1-100% disease present)	0 (0 = 0% disease present)						
COC=C(C(=O)OC)c1ccccc1COC(=O)N(C)c1ccc(F)cc1F [24 (2)]	0 (0 = 0% disease present)	0 (0 = 0% disease present)	0 (0 = 0% disease present)	0 (0 = 0% disease present)	0 (0 = 0% disease present)	0 (0 = 0% disease present)	0 (0 = 0% disease present)						
COC=C(C(=O)OC)c1ccccc1COC(=O)Nc1ccc(OC)nc1 [32 (1)]	30 (30 = 20.1-30% disease present)	30 (30 = 20.1-30% disease present)	90 (90 and 94 = 60.1-100% disease present)	60 (60 = 30.1-60% disease present)	0 (0 = 0% disease present)	90 (90 and 94 = 60.1-100% disease present)	20 (20 and 24 = 10.1-20% disease present)						
COC=C(C(=O)OC)c1ccccc1COC(=O)Nc1ccccc1C(=O)OC [33 (1)]	90 (90 and 94 = 60.1-100% disease present)	90 (90 and 94 = 60.1-100% disease present)	90 (90 and 94 = 60.1-100% disease present)	0 (0 = 0% disease present)	90 (90 and 94 = 60.1-100% disease present)	90 (90 and 94 = 60.1-100% disease present)	60 (60 = 30.1-60% disease present)						

— patent US6465457B1 (priority 1991, dated 2002)
